Test results published in ChEMBL document CHEMBL1137963, “New oligomers of conduritol-F and muco-inositol. Synthesis and biological evaluation as glycosidase inhibitors” (Bioorg Med Chem Lett, 2004).
The source made the active and inactive calls. The calls are words filed in the database; no cut-off is given here.

Tests used:
[1] = biological target: T1, Alpha-galactosidase A (Homo sapiens) (UniProt P06280); assay: Concentration required to inhibit alpha-galactocosidase; IA means inactive
T1 sequence (whole entry): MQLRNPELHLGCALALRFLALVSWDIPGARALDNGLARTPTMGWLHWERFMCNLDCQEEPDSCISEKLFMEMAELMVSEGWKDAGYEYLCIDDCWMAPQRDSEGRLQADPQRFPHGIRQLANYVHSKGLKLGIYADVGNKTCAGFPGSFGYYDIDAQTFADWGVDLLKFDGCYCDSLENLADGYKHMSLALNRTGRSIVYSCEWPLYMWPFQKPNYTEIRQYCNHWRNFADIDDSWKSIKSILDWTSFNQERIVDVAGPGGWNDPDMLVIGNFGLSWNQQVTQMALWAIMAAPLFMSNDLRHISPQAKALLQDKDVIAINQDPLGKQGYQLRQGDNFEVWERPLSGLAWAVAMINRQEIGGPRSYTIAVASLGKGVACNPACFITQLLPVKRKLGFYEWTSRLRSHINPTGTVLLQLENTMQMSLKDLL

[2] = biological target: Beta-glucosidase A (Caldicellulosiruptor saccharolyticus) (UniProt P10482); assay: Concentration required to inhibit beta-glucosidase; IA means inactive
Chain of Beta-glucosidase A (Caldicellulosiruptor saccharolyticus) (P10482 whole entry): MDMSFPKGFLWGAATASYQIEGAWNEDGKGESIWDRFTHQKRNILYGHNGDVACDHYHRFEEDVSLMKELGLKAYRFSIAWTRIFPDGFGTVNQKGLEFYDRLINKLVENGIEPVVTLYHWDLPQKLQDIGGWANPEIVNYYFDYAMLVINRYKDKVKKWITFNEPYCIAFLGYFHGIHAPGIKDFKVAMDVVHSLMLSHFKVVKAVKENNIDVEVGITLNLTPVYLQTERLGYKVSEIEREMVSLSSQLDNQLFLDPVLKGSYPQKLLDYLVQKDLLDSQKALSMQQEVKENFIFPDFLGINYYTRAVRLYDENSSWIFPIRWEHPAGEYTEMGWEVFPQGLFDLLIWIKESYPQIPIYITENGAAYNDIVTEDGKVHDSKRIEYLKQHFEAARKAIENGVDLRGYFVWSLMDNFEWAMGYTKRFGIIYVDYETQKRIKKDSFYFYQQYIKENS

[3] = Concentration required to inhibit alpha-mannosidase; IA means inactive
[4] = biological target: Maltase-glucoamylase (Homo sapiens) (UniProt O43451); assay: Concentration required to inhibit alpha-glucosidase
Chain of Maltase-glucoamylase (Homo sapiens) (O43451 whole entry, looked up): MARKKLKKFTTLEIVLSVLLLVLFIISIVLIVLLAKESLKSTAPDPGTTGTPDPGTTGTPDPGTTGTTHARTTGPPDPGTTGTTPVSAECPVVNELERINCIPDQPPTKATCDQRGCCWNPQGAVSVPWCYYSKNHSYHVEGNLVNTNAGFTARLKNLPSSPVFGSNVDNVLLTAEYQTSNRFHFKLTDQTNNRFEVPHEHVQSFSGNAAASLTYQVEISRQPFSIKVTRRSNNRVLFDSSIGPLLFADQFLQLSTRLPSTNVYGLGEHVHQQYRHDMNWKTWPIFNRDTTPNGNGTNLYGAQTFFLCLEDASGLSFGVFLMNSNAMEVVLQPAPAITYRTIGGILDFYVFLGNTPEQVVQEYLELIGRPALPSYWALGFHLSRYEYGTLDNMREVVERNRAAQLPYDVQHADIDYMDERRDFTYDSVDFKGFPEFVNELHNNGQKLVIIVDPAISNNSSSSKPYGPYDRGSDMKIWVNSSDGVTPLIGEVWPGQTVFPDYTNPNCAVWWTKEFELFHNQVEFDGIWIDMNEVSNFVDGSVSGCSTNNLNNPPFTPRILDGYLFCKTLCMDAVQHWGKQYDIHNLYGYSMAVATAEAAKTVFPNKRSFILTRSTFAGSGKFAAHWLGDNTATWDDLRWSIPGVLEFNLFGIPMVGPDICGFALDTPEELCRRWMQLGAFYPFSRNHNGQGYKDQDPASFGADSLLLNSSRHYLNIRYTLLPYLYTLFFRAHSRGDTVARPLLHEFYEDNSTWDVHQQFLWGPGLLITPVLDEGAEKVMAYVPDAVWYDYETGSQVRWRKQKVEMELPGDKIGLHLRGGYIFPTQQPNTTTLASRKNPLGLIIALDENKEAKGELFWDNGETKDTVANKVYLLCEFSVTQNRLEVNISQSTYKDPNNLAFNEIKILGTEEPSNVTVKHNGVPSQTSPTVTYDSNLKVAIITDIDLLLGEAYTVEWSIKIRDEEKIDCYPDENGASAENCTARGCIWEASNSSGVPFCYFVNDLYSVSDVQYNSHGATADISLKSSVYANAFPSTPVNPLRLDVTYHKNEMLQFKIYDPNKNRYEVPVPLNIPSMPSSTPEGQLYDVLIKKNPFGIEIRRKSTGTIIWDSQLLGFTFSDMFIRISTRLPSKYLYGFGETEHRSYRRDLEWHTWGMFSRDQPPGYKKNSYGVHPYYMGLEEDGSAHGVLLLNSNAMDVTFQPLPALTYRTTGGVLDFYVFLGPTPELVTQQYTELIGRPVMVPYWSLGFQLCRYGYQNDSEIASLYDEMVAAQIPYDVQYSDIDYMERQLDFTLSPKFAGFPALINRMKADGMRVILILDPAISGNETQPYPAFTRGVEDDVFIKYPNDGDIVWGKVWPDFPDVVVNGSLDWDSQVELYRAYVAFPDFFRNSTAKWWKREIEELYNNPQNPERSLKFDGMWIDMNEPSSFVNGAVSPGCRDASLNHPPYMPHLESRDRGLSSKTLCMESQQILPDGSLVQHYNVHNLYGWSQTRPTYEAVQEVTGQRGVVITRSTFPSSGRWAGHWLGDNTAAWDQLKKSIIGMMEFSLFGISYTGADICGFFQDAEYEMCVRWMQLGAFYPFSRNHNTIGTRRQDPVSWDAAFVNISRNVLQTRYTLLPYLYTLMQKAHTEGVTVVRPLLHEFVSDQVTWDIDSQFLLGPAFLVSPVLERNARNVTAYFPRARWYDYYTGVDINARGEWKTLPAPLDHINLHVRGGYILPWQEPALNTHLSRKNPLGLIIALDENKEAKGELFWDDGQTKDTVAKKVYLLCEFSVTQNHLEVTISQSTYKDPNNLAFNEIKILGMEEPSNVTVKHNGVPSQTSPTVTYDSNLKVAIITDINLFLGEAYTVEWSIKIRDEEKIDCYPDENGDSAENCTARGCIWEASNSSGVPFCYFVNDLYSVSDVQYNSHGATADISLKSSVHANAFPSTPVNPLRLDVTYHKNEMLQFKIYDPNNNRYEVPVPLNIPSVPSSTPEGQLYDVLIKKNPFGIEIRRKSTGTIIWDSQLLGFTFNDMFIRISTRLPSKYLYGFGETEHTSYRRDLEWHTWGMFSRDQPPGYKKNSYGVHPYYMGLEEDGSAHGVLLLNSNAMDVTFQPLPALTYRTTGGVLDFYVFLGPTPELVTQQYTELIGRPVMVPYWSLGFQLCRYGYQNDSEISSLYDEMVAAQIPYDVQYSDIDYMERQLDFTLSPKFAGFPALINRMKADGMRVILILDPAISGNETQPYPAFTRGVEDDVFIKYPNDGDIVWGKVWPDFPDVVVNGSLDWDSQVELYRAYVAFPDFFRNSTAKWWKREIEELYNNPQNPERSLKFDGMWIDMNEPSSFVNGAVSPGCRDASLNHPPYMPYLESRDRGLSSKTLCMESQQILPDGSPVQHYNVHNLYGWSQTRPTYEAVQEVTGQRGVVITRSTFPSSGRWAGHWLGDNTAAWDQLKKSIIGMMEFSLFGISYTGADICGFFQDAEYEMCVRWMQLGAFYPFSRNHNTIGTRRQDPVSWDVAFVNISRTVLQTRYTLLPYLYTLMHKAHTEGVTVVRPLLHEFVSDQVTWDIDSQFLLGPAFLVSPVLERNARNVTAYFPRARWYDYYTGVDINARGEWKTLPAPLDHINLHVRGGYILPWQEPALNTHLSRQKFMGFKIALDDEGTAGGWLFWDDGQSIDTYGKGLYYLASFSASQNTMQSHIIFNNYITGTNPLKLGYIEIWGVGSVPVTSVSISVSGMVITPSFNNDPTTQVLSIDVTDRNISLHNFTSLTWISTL

[5] = biological target: T2, Beta-galactosidase (Homo sapiens) (UniProt P16278); assay: Concentration required to inhibit beta-galactosidase
T2 sequence (whole entry): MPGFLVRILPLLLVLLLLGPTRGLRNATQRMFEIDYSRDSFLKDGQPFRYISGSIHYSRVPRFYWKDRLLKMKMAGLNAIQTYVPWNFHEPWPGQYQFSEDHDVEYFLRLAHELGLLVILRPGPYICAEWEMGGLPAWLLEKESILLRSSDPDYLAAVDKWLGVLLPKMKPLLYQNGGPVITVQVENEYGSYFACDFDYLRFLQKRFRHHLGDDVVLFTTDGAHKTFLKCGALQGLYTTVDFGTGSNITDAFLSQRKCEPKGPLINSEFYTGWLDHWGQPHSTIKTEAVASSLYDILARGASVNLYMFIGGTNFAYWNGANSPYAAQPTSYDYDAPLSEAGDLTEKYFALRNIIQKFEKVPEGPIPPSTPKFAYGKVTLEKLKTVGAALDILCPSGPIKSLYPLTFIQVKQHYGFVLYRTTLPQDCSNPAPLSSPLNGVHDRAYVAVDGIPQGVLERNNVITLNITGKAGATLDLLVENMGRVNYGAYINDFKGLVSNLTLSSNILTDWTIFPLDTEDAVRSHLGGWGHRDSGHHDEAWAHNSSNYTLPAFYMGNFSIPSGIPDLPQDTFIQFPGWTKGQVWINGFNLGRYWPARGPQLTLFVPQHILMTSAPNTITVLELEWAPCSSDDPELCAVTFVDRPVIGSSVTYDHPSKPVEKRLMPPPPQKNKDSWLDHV

[6] = biological target: T3, Beta-mannosidase (Rattus norvegicus) (UniProt Q4FZV0); assay: Concentration required to inhibit beta-mannosidase; IA means inactive
T3 sequence (whole entry): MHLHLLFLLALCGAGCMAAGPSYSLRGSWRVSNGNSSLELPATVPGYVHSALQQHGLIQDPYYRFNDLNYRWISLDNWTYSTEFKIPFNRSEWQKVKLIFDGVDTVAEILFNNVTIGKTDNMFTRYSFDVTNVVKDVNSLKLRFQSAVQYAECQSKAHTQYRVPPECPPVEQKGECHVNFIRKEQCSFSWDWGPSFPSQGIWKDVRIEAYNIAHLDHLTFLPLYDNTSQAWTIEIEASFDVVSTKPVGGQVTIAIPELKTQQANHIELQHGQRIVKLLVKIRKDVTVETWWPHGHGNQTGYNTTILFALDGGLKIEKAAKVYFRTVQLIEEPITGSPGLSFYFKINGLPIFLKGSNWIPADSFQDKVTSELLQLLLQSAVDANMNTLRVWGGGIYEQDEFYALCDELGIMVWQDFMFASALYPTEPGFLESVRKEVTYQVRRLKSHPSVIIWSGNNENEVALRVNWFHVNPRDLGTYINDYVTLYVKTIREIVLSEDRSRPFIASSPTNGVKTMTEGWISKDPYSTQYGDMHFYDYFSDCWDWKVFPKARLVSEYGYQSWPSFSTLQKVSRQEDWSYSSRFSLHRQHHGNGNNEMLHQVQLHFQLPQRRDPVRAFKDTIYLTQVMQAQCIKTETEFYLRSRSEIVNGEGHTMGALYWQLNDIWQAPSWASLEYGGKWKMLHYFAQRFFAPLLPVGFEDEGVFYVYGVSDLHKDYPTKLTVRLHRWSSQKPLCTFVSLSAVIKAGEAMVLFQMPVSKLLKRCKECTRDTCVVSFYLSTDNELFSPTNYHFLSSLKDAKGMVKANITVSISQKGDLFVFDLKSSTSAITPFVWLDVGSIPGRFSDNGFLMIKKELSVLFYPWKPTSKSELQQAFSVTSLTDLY

[7] = biological target: Maltase-glucoamylase (Homo sapiens) (UniProt O43451); assay: Concentration required to inhibit alpha-glucosidase; IA means inactive
[8] = biological target: T1, Alpha-galactosidase A (Homo sapiens); assay: Concentration required to inhibit alpha-galactocosidase
[9] = biological target: T3, Beta-mannosidase (Rattus norvegicus); assay: Concentration required to inhibit beta-mannosidase
[10] = biological target: T2, Beta-galactosidase (Homo sapiens); assay: Concentration required to inhibit beta-galactosidase; IA means inactive

| Concentration [1] | Concentration [2] | Concentration [3] | Concentration [4] | Concentration [5] | Concentration [6] | Concentration [7] | Concentration [8] | Concentration [9] | Concentration [10] | Structure (SMILES) |
| --- | --- | --- | --- | --- | --- | --- | --- | --- | --- | --- |
| inactive | inactive | inactive | 800 µM | 600 µM | inactive | – | – | – | – | O[C@@H]1[C@@H](O)[C@@H](O)[C@H](O[C@H]2[C@@H](O)[C@H](O)[C@@H](O)[C@@H](O)[C@@H]2O)[C@@H](O)[C@H]1O |
| inactive | inactive | inactive | – | 600 µM | inactive | inactive | – | – | – | O[C@H]1[C@H](O)[C@@H](O)C=C[C@H]1O |
| – | inactive | inactive | – | 250 µM | – | inactive | 275 µM | 1.5 mM | – | O[C@H]1[C@H](O)[C@@H](O[C@H]2C=C[C@@H](O)[C@@H](O)[C@@H]2O)C=C[C@H]1O |
| inactive | inactive | inactive | – | – | inactive | inactive | – | – | inactive | O[C@H]1[C@H](O)[C@@H](O)[C@H](O)[C@@H](O)[C@H]1O |
| – | inactive | inactive | 60 µM | 190 µM | inactive | – | 850 µM | – | – | O[C@H]1[C@H](O)[C@@H](O[C@H]2[C@H](O)[C@H](O)C=C[C@@H]2O)C=C[C@H]1O |
